The values that follow are results of earlier work, collected in patent US20070281995A1, “Creatine analog prodrugs, compositions and uses thereof” (XenoPort, Inc., priority 2006, published 2007).

The structures appear in SMILES notation. Like-named read-outs stand apart in the source and are kept apart here.

The conditions of data set [1]: healthy volunteers, oral creatine administration.
Experiment in data set [2]: not given
This is another data set of the same source.

The conditions of data set [3]: animals fed a diet containing up to 1%.

On to `CN(CC(=O)O)C(=N)N.O` [creatine monohydrate], for which the adverse side effects result (athletes and body builders, 2-3 gm/day) is “without adverse side effects”.

Turning to `CN(CC(=O)O)C(=N)NP(=O)(O)O` [creatine phosphate], the adverse side effects entry (patients with cardiac diseases, intravenous injection up to 8 gm/day) is given as “without adverse side effects”.

As for `CN(CC(=O)O)C(=N)N` [creatine, Creatine], the “increase of cerebral creatine phosphate” value in data set [1] is given as “about 10%”. Also, the “overall increase in creatine phosphate levels” value in data set [2] (creatine supplementation, typically takes weeks) is given as < 50%. The “duration of increases in tissue creatine phosphate levels” value in data set [2] (following oral creatine supplementation) is on record as > 14 days.

For the compound `NC1=NCCN1CC(=O)O` [cyclocreatine], the adverse effects entry in data set [3] is listed as “do not exhibit adverse effects”.
